Test results as given in US11939403B2, “Peptide-peptoid scaffolds” (The Regents of the University of California, priority 2020, dated 2024).
Values after ≈ are worked out from the molar mass of the structure shown. Values joined by “and” are separate entries in the source; they are usually repeats but may differ in a detail not shown here. Equal entries are not always repeated. Where two headings read alike, the source gives them in different places. Marks after values point to notes of the source that are not given here. Each block holds one compound with its values, some of them ahead of it. Square brackets hold non-standard residues; d marks the D form. Peptide text beside a SMILES is read from it. Gly(N-CH2-oxan-4-yl) = O=C(O)CNCC1CCOCC1; NCyclohexylmethylGly = O=C(O)CNCC1CCCCC1; NMeL = CN[C@@H](CC(C)C)C(=O)O; NMeA = CN[C@@H](C)C(=O)O; NEtG = CCNCC(=O)O

Key:
[1] = Aqueous solubility, Japanese Pharmacopoeia Second Fluid (pH 6.8); assay type: physicochemical; details: for Aq. Sol.: Japanese Pharmacopoeia Second Fluid (pH 6.8); for solubility: Japanese Pharmacopoeia Second Fluid
Procedure: (§1) For each of these six pure compounds, calculated (atomistic) octanol/water partition coefficient (A Log P), aqueous solubility (Aq. Sol), PAMPA and MDCK permeabilities, experimental octanol/water partition coefficient (Log D (oct/w)), P-gp efflux ratios, microsomal stability, and serum protein binding were determined (Table 1 and FIG. 5).

[2] = in vitro; details: dog, MDCK, MDCK Perm.
Procedure: (§2) Permeabilities were also measured in a Madin-Darby canine kidney (MDCK) permeability assay, in which the passage of the compound through a semipermeable membrane coated with MDCK cells is measured.

[3] = molecular target: T1, P-gp (Homo sapiens, UniProt P08183); details: MDCK, 10 μM
T1 sequence (P08183 whole entry): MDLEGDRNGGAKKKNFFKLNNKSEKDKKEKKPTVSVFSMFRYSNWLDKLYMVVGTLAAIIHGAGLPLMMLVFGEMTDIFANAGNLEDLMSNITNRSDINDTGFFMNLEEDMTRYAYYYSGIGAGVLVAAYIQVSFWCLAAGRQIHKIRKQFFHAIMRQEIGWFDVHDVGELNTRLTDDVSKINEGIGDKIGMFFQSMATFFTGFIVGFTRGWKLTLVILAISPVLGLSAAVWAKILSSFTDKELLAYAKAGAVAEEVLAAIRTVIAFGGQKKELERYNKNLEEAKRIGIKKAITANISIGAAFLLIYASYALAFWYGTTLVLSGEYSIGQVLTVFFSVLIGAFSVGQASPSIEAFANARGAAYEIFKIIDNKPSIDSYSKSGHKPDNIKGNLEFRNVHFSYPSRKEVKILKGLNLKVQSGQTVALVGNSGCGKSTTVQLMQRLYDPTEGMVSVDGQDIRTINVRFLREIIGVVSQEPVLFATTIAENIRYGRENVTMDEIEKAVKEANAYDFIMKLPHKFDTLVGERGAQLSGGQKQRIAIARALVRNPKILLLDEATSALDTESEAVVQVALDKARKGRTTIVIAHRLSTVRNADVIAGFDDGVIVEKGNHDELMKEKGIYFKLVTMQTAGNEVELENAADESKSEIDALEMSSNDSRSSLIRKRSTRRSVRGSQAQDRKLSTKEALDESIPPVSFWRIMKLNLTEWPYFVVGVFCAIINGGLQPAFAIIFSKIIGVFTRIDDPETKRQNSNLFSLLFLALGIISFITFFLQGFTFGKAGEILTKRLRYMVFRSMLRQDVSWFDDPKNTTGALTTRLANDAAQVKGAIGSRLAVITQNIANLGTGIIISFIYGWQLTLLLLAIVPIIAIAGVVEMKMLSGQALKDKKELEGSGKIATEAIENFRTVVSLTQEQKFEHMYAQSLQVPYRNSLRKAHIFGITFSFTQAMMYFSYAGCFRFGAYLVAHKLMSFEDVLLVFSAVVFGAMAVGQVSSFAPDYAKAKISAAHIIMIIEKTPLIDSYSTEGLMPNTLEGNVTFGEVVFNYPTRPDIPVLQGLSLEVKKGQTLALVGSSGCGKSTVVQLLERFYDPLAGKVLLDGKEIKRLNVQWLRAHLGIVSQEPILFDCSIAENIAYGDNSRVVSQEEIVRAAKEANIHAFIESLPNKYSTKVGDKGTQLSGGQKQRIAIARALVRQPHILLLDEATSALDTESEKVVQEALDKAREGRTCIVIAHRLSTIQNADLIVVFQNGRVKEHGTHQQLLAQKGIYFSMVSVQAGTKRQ

[4] = Oral bioavailability in mice; assay type: in vivo; details: for bioavailability / BA: mouse; for bioavailability: po
Excerpt: Based on their permeabilities in PAMPA and MDCK cells, the in vivo pharmacokinetics of 5 of these 6 pure compound library members were investigated (B03 was not included in the oral PK study, because of its low (small) PAMPA and MDCK permeabilities). […] To test whether metabolism and efflux were the main factors contributing to the low oral bioavailability (BA), mice were pretreated with either the CYP inhibitor […] (ABT), the P-gp inhibitor elacridar (GF120918), or a combination of both the CYP and P-gp inhibitors. […] Combining the inhibitors also produced oral bioavailabilities that reflected the compounds' relative PAMPA permeabilities.

[5] = molecular target: T1, P-gp; experiment: in vitro; details: MDCK, P-gp R-value
[6] = Experimental octanol/water partition coefficient Log D (oct/w); details: for logD: octanol/water, pH 7.4, LogD (oct/w)
Procedure: as §1

[7] = Serum protein binding; assay type: in vitro ADME; details: bound fractions in rat plasma; for fraction unbound: rat, plasma
[8] = Microsomal stability; assay type: in vitro ADME; details: remaining rate after 30 min of incubation with pooled liver microsomes (0.1 mg/mL, rats); for remaining at 0.5 h: rat
[9] = PAMPA permeability of pure compounds under sink conditions; assay type: in vitro ADME; details: detergents in donor and acceptor wells (sink conditions); for Papp: PAMPA, read-out: PAMPA Perm.
Procedure: PAMPA permeability studies on these six pure compounds were performed initially under the same conditions as those used in the original library screen, using a concentration of 1 μM in the donor well based on the estimated concentration of each compound in the original library. […] Without being bound by theory, it was hypothesized that the pure compounds were precipitating in the donor well or adhering to the walls of the apparatus, and that as mixtures they could act as pseudo-detergents (or mutual blocking agents) to help prevent escape from solution (such as through aggregation or adsorption). Therefore, the PAMPA permeabilities of the pure compounds using detergents in the donor and acceptor wells as “sink” conditions were re-investigated. Using these conditions, the permeability trends were similar to those observed in the Libraries. […] The PAMPA permeabilities of the scaffold A compounds were high (large) across the entire A Log P range, whereas the permeabilities of scaffold B compounds trended upward (greater) along with A Log P.

[10] = system: MDCK cells
Procedure: as §2

[11] = PAMPA permeability under standard (library screen) conditions; assay type: in vitro ADME; details: pure compounds, donor well concentration 20 μM
Excerpt: Libraries A and B were synthesized separately as mixtures using solid phase split-pool peptide synthesis, incorporating peptoid side chains as primary amines using the submonomer method. (Zuckermann R N et al. Efficient Method for the Preparation of Peptoids [Oligo(N-Substituted Glycines)] by Submonomer Solid-Phase Synthesis. J Am Chem Soc. (1992) 114, 10646-7. doi: DOI 10.1021/ja00052a076. PubMed PMID: WOS:A1992KD71700076.) The libraries were cleaved, cyclized in solution, and roughly purified using solid phase extraction on C18 media. Parallel artificial membrane permeability assays (PAMPA) were used to measure passive permeabilities; PAMPA permeabilities within each library varied parabolically as a function of A Log P (FIG. 2A).
PAMPA permeability studies on these six pure compounds were performed initially under the same conditions as those used in the original library screen, […] of each compound in the original library. […] Without being bound by theory, it was hypothesized that the pure compounds were precipitating in the donor well or adhering to the walls of the apparatus, and that as mixtures they could act as pseudo-detergents (or mutual blocking agents) to help prevent escape from solution (such as through aggregation or adsorption). […]

[12] = physchem; details: pH 7.4, LogD (oct/w)
Procedure: as §1

[13] = pH 7.4
Procedure: as §1

[14] = pH 6.8, pure compounds, values in text, read-out: Aqueous solubility
[15] = in vivo, mice, oral, no inhibitors, read-out: Oral bioavailability, no inhib.
[16] = in vivo, mice, oral, pretreatment with 1-aminobenztriazole (CYP inhibitor), read-out: Oral bioavailability, +CYP inhib.
[17] = in vivo, mice, oral, pretreatment with 1-aminobenztriazole and GF120918, read-out: Oral bioavailability, +CYP inhib. +P-gp inhib.
[18] = not told, mice, oral, pretreatment with GF120918 (P-gp inhibitor), read-out: Oral bioavailability, +P-gp inhib.
[19] = pH 6.8, Japanese Pharmacopoeia Second Fluid (pH 6.8), read-out: Aq. Sol.
[20] = mice, oral, pretreatment with 1-aminobenztriazole and GF120918
[21] = mice, oral, pretreatment with GF120918 (P-gp inhibitor)

- Aq. Sol. [1]: 1.900 mg/mL
- solubility [1, 14]: 1900 µg/mL (≈ 1870 µM)
- Papp [2]: 0.3 ×10⁻⁶ cm/s
- efflux ratio at 10 μM [5]: 1.4
- logD [6]: 2.1
- Serum Protein Binding [7]: 56%
- fraction unbound [7]: 0.43
- remaining at 0.5 h [8]: 94%
- Microsomal Stability [8]: 94%
Structure (SMILES): CCN1CC(=O)N[C@@H](CC(C)C)C(=O)N2CCC[C@@H]2C(=O)N(C)[C@@H](CC(C)C)C(=O)N[C@@H](C)C(=O)N(CC2CCOCC2)CC(=O)N[C@@H](C)C(=O)N2CCC[C@@H]2C(=O)N(C)[C@@H](CC(C)C)C(=O)N[C@@H](C)C1=O [Compound B03] (cyclo(A[NEtG]L[dP][NMeL]A[Gly(N-CH2-oxan-4-yl)]A[dP][NMeL]))

- solubility [1, 14]: 20 µg/mL (≈ 18.4 µM)
- P-gp R-value [3]: 19.2
- Oral bioavailability, no inhib. ([4]; mice, oral, no inhibitors): 6%
- Oral bioavailability, +CYP inhib. ([4]; mice, oral, pretreatment with 1-aminobenztriazole (CYP inhibitor)): 148^c %
- Oral bioavailability, +CYP inhib. +P-gp inhib. [4, 20]: 101^c %
- Oral bioavailability, +P-gp inhib. [4, 21]: 13%
- bioavailability [4, 17]: > 100%
- logD [12]: > 4.8
- MDCK Perm. [10]: 15 ×10⁻⁶ cm/s
- MDCK Perm. ([10]; dog): 15.3 ×10⁻⁶ cm/s
- PAMPA membrane transport [11]: some membrane transport was observed
- remaining at 0.5 h [8]: 53%
- Microsomal Stability [8]: 53%
- Papp [9]: 50 ×10⁻⁶ cm/s
- PAMPA Perm. [9]: >50 ×10⁻⁶ cm/s
- LogD (oct/w) [13]: 4.8
Structure (SMILES): CCN1CC(=O)N[C@@H](CC(C)C)C(=O)N2CCC[C@@H]2C(=O)N(C)[C@@H](CC(C)C)C(=O)N[C@@H](C)C(=O)N(CC2CCCCC2)CC(=O)N[C@@H](Cc2ccccc2)C(=O)N2CCC[C@@H]2C(=O)N(C)[C@@H](CC(C)C)C(=O)N[C@@H](C)C1=O [Compound B08] (cyclo([NEtG]L[dP][NMeL]A[NCyclohexylmethylGly]F[dP][NMeL]A))

- Aq. Sol. [1]: 2.200 mg/mL
- solubility [1, 14]: 2200 µg/mL (≈ 2020 µM)
- P-gp R-value [3]: 10
- Oral bioavailability, +CYP inhib. +P-gp inhib. [4, 20]: 14%
- Oral bioavailability, +P-gp inhib. [4, 21]: 3%
- bioavailability [4, 15]: 0.7%
- bioavailability [4, 16]: 1.5%
- logD [12]: 3.6
- MDCK Perm. ([10]; dog): 0.4 ×10⁻⁶ cm/s
- remaining at 0.5 h [8]: 90%
- Microsomal Stability [8]: 90%
- Papp [9]: 0.7 ×10⁻⁶ cm/s
- PAMPA Perm. [9]: 1.4 ×10⁻⁶ cm/s
Structure (SMILES): CCN1CC(=O)N[C@@H](CC(C)C)C(=O)N2CCC[C@@H]2C(=O)N(C)[C@@H](CC(C)C)C(=O)N[C@@H](C)C(=O)N(CC2CCOCC2)CC(=O)N[C@@H](Cc2ccccc2)C(=O)N2CCC[C@@H]2C(=O)N(C)[C@@H](CC(C)C)C(=O)N[C@@H](C)C1=O [Compound B09] (cyclo(A[NEtG]L[dP][NMeL]A[Gly(N-CH2-oxan-4-yl)]F[dP][NMeL]))

Continued, compound first:

Structure (SMILES): CCN1CC(=O)N[C@@H](CC(C)C)C(=O)N(C)[C@@H](C)C(=O)N[C@@H](CC(C)C)C(=O)N2CCC[C@@H]2C(=O)N(CC2CCOCC2)CC(=O)N[C@@H](CC(C)C)C(=O)N(C)[C@@H](C)C(=O)N[C@@H](C)C(=O)N2CCC[C@@H]2C1=O [Compound A03] (cyclo([NEtG]L[NMeA]L[dP][Gly(N-CH2-oxan-4-yl)]L[NMeA]A[dP]))
- Aq. Sol. [1]: 1.900 mg/mL
- solubility [1, 14]: 1900 µg/mL (≈ 1870 µM)
- Papp [2]: 0.4 ×10⁻⁶ cm/s
- P-gp R-value [3]: 6.4
- bioavailability ([4]; in vivo, 30 mg/kg, oral dose 30 mg/kg, no inhibitors, based on AUC at 1 mg/kg IV dose, read-out: BA): 11.5%
- bioavailability ([4]; in vivo, 100 mg/kg, oral dose 100 mg/kg, no inhibitors, based on AUC at 1 mg/kg IV dose, read-out: BA): 22.1%
- bioavailability ([4]; in vivo, 200 mg/kg, oral dose 200 mg/kg, no inhibitors, based on AUC at 1 mg/kg IV dose, read-out: BA): 49.8%
- bioavailability [4, 15]: 1%
- bioavailability [4, 16]: 2%
- bioavailability [4, 17]: 39%
- bioavailability [4, 18]: 4%
- BA ([4]; oral dose 3 mg/kg, no inhibitors, based on AUC at 1 mg/kg IV dose): 1% and 0.99%
- BA ([4]; oral dose 200 mg/kg, no inhibitors, based on AUC at 1 mg/kg IV dose): 50%
- efflux ratio at 10 μM [5]: 6
- logD [6]: 2.9
- fraction unbound [7]: 0.31
- remaining at 0.5 h [8]: 64%
- Microsomal Stability [8]: 64%
- Papp [9]: 18 ×10⁻⁶ cm/s
- PAMPA Perm. [9]: 17.2 ×10⁻⁶ cm/s

Structure (SMILES): CCN1CC(=O)N[C@@H](CC(C)C)C(=O)N(C)[C@@H](C)C(=O)N[C@@H](CC(C)C)C(=O)N2CCC[C@@H]2C(=O)N(CC2CCCCC2)CC(=O)N[C@@H](CC(C)C)C(=O)N(C)[C@@H](C)C(=O)N[C@@H](Cc2ccccc2)C(=O)N2CCC[C@@H]2C1=O [Compound A08] (cyclo(F[dP][NEtG]L[NMeA]L[dP][NCyclohexylmethylGly]L[NMeA]))
- Aq. Sol. [1]: 0.070 mg/mL
- solubility [1, 19]: 6.8 µg/mL (≈ 6.24 µM)
- solubility [1, 14]: 70 µg/mL (≈ 64.3 µM)
- Papp [2]: 25 ×10⁻⁶ cm/s
- bioavailability [4, 15]: 5%
- bioavailability [4, 16]: 31%
- bioavailability [4, 17]: 59%
- bioavailability [4, 18]: 7%
- MDCK Perm. ([10]; dog): 24.7 ×10⁻⁶ cm/s
- logD [6]: 4.1
- Serum Protein Binding [7]: 99% and >99.8%
- remaining at 0.5 h [8]: 33%
- Microsomal Stability [8]: 33%
- Papp [9]: 18 ×10⁻⁶ cm/s
- PAMPA Perm. [9]: 18.8 ×10⁻⁶ cm/s

Structure (SMILES): CCN1CC(=O)N[C@@H](CC(C)C)C(=O)N(C)[C@@H](C)C(=O)N[C@@H](CC(C)C)C(=O)N2CCC[C@@H]2C(=O)N(CC2CCOCC2)CC(=O)N[C@@H](CC(C)C)C(=O)N(C)[C@@H](C)C(=O)N[C@@H](Cc2ccccc2)C(=O)N2CCC[C@@H]2C1=O [Compound A09] (cyclo([NEtG]L[NMeA]L[dP][Gly(N-CH2-oxan-4-yl)]L[NMeA]F[dP]))
- Aq. Sol. [1]: 0.600 mg/mL
- solubility [1, 19]: 640 µg/mL (≈ 586 µM)
- solubility [1, 14]: 600 µg/mL (≈ 550 µM)
- Papp [2]: 3.1 ×10⁻⁶ cm/s
- P-gp R-value [3]: 46.9
- Oral bioavailability, +CYP inhib. +P-gp inhib. [4, 20]: 105^c %
- bioavailability [4, 15]: 2%
- bioavailability [4, 16]: 5%
- bioavailability [4, 17]: > 100%
- bioavailability [4, 18]: 22%
- efflux ratio at 10 μM [5]: 43
- logD [6]: 4.1
- LogD (oct/w) ([6]; pH 7.4): >4.1
- PAMPA membrane transport [11]: some membrane transport was observed
- Serum Protein Binding [7]: 98%
- fraction unbound [7]: 0.01
- remaining at 0.5 h [8]: 67%
- Microsomal Stability [8]: 67%
- Papp [9]: 35 ×10⁻⁶ cm/s
- PAMPA Perm. [9]: 35.7 ×10⁻⁶ cm/s
